US4399065A, “D-Phenylalanyl-L-prolyl-L-arginine aldehyde sulfate and process for the preparation thereof” (Patentbureau Danubia, priority 1981, dated 1983)
Several values for one entry are separate records, joined by “and”; a condition that tells them apart may be missing. Equal values may be shown once.

Columns and labels:
[1] = Solubility; type: physicochemical
[2] = system: thrombin time in the whole blood; assay: In vivo trial, rabbit: dose required to prolong thrombin time in the whole blood 1.5 to 2.5 fold; details: thrombin time in whole blood prolonged 1.5 to 2.5 fold
Excerpt: (§1) ^a The therapeutic effect is characterized by the dose required to […]

[3] = target: T1, U.S. Standard Human Thrombin (Homo sapiens, UniProt P00734); assay: Antithrombin activity (thrombin time) in human plasma; type: biochemical; parameters: U.S. Standard Human Thrombin; purchased NIH, Bethesda, Md., USA; details: for Relative activity: sulfate = 100; for amount required for a twofold thrombin time increase relative to the tripeptide aldehyde sulfate: human plasma; for IC (2-fold thrombin time): pH 7.2, read-out: Amount of peptide required to increase thrombin time twofold immediately following dissolution of the peptide
Experimental: In order to simulate physiological conditions the antithrombin activity of the tripeptide aldehyde salts as well as that of the carbamic acid derivatives was tested also on human plasma in the following system:
0.2 ml of human citrate plasma,
0.1 ml of tris(hydroxymethyl)-amino-methane hydrochloride--hydrochloric acid buffer solution (pH 7.2) containing the peptide solution, and
0.1 ml of U.S. Standard Human Thrombin (NIH, Bethesda Md., USA), 10 Units/ml solution.

[4] = system: thrombin; details: known from Hungarian Pat. No. 169,870 / Belgian Pat. No. 880,844; cited from earlier work
[5] = system: thrombin time in the whole blood; assay: In vivo trial, dog: dose required to prolong thrombin time in the whole blood 1.5 to 2.5 fold; details: thrombin time in whole blood prolonged 1.5 to 2.5 fold
Excerpt: as §1

[6] = Acute toxicity in mice; type: in vivo; details: mouse, in vivo
[7] = Stability of peptide aldehyde salts/derivatives in aqueous solution and in solid form; type: physicochemical
[8] = system: thrombin time in the whole blood; assay: In vivo trial of the tripeptide aldehyde derivatives, summary statements; parameters: species or system rabbit, dog; details: for oral dose at which therapeutic effect may be achieved: species not given
Excerpt: as §1

[9] = target: T1, U.S. Standard Human Thrombin; assay: Antithrombin activity (thrombin time) of peptide solutions stored in isotonic salt solution, fibrinogen system; details: for Relative activity after 0 days: 10 mg/ml, 100 = fivefold relative thrombin time at 3.5 × 10^-7 M
Experimental: In the course of our tests the peptides were dissolved in concentrations of 10 mg/ml, stored at 5° C., and the ensuing change in antithrombin activity registered for 180 days. The potency was assayed in a system containing the following components:
0.2 ml of 0.5 percent bovine fibrinogen in a 0.9 percent solution of sodium chloride,
0.1 ml of tris(hydroxymethyl)-amino-methane hydrochloride--hydrochloric acid buffer (pH 7.2) containing the peptide solution
0.1 ml of U.S. Standard Human Thrombin (NIH, Bethesda, Md., USA), 10 Unit/ml solution.
The activity of the tripeptide aldehyde solution was arbitrarily set up as 100, if the reaction mixture induced a fivefold relative thrombin time at a final concentration of 3.5×10^-7 M (in the case of the tripeptide aldehyde sulfate at 0.175 μg/ml).

[10] = cited from earlier work
[11] = system: mice; assay: Acute toxicity in mice; type: in vivo; details: acute toxicity
[12] = Acute toxicity at intravenous infusion in the rabbit; details: in vivo
[13] = po, mice, p.o., read-out: LD50 p.o.
[14] = ip, mice, i.p., read-out: LD50 i.p.
[15] = iv, mice, i.v. bolus, read-out: LD50 i.v. bolus

Molecule | Dose required for therapeutic effect, p.o., rabbit [2] [mg/kg] | Dose required for therapeutic effect, s.c., rabbit [2] [mg/kg] | Relative activity ([3]; human citrate plasma) | amount required for a twofold thrombin time increase relative to the tripeptide aldehyde sulfate [3] | IC (2-fold thrombin time) [3] [µg/mL] | Dose required for therapeutic effect, i.v. infusion, dog [5] [mg/kg/h] | Dose required for therapeutic effect, p.o., dog [5] [mg/kg] | Dose required for therapeutic effect, s.c., dog [5] [mg/kg] | LD50 [6, 13] [mg/kg] | activity starting to decrease (in words) ([9]; isotonic salt solution, 5° C.) | also measured
N=C(NCCC[C@@H](C=O)NC(=O)[C@@H]1CCCN1C(=O)[C@H](N)Cc1ccccc1)NC(=O)O [D-Phe-Pro-Arg/COOH/-H, D-phenylalanyl-L-prolyl-N^G -carboxy-L-arginine aldehyde] | 50 | 10.0 | 45 | twofold | 0.042 | 3.0 | 50 | 6.0 | 1200 | already after several days | solubility [1]: poor solubility; thrombin inhibition [4]: potent thrombin inhibitors; potency after several days ([7]; aqueous buffer solution, after several days): significant reduction in potency; activity after several months in solid form ([7]; solid form, after several months): loss of original activity even in solid form; oral dose at which therapeutic effect may be achieved [8]: 50 mg/kg; Relative activity after 0 days ([9]; isotonic salt solution, 5° C.): 100
Heparin | – | 5.0 | 19 | – | – | 0.5 | – | 2.0 | – | – | Dose required for therapeutic effect, i.v. infusion, rabbit [2]: 0.6 mg/kg/h; Amount of peptide required to increase thrombin time twofold immediately following dissolution of the peptide ([3]; human citrate plasma, pH 7.2, amount in the reaction mixture): 0.105 µg/mL; activity given orally ([10]; oral): practically inactive at oral application; time until effect may be registered (in words) ([10]; primarily i.v. infusion): rapidly, within a short period of time
CC(=O)O.Cl.N=C(N)NCCC[C@@H](C=O)NC(=O)[C@@H]1CCCN1C(=O)[C@H](N)Cc1ccccc1 [D-Phe-Pro-Arg-H.2HCl, D-phenylalanyl-L-prolyl-L-arginine aldehyde acetate and hydrochloride] | – | – | – | manifold | 0.06 to 0.13 | – | 100 | – | – | – | antithrombin potency upon standing in aqueous solution [7]: varying and rapidly decreasing; activity starting to decrease after ([9]; isotonic salt solution, 5° C.): > 5 days
CC(=O)O.N=C(N)NCCC[C@@H](C=O)NC(=O)[C@@H]1CCCN1C(=O)[C@H](N)Cc1ccccc1 [D-Phe-Pro-Arg-H.2 CH3 COOH, D-phenylalanyl-L-prolyl-L-arginine aldehyde acetate] | 100 | – | – | manifold | 0.065 to 0.14 | – | 100 | – | 960 | already after several days | thrombin inhibition [4]: potent thrombin inhibitors; LD50 [6, 14]: 38 mg/kg; LD50 [6, 15]: 9 mg/kg; antithrombin potency upon standing in aqueous solution [7]: varying and rapidly decreasing
N=C(N)NCCC[C@@H](C=O)NC(=O)[C@@H]1CCCN1C(=O)[C@H](N)Cc1ccccc1.O=S(=O)(O)O [D-Phe-Pro-Arg-H.H2 SO4, D-Phenylalanyl-L-prolyl-L-arginine aldehyde sulfate] | 25 | 6.0 | 100 | – | 0.02 | 0.5 | 25 | 6.0 | > 2000 | – | Dose required for therapeutic effect, i.v. infusion, rabbit [2]: 1.0 mg/kg/h; toxicity data compared with the acetate and the carbamic acid derivative [11]: more favourable than those of either the acetate or the carbamic acid derivative; LD50 [6, 14]: 230 mg/kg; LD50 [6, 15]: 45 mg/kg; LD50 ([6]; po, oral administration, read-out: acute toxicity at oral administration): 2000 mg/kg; LD50 ([6]; sc, mice, s.c., read-out: LD50 s.c.): 1800 mg/kg; antithrombin potency in vivo ([8]; in vivo): significant antithrombin potency in vivo; efficacy at intravenous and subcutaneous application ([8]; intravenous and subcutaneous, compared with heparin): in the range of that of heparin; oral dose at which therapeutic effect may be achieved [8]: 25 mg/kg; LD50 [12]: 58 mg/kg; Relative activity after 0 days ([9]; isotonic salt solution, 5° C.): 100; retaining its antithrombin activity ([9]; isotonic salt solution, 5° C.): ≥ 90 days; IC (5-fold thrombin time) ([9]; pH 7.2, read-out: final concentration inducing a fivefold relative thrombin time (activity set up as 100)): 0.35 µM and 0.175 µg/mL; stable in aqueous medium ([9]; prolonged stability trials, aqueous medium): ≥ 180 days; failed to lose activity in solid form ([9]; solid form): ≥ 6 months
N=C(N)NCCC[C@@H](C=O)NC(=O)[C@@H]1CCCN1C(=O)[C@H](N)Cc1ccccc1 [tosylate] | – | – | – | – | – | – | – | – | – | – | change of antithrombin activity compared with the acetate ([9]; isotonic salt solution, Table 1 footnote d): changing similarly to that of the acetate
N=C(N)NCCC[C@@H](C=O)NC(=O)[C@@H]1CCCN1C(=O)[C@H](N)Cc1ccccc1 [citrate] | – | – | – | – | – | – | – | – | – | already after several days | –
